Data set [1] concerns PA-1 (ovary cancer) cells. The data set can be described thus: In-vitro anticancer MTT assay, PA-1. Format: cell-based, human. The note with it: 90% inhibition of cell growth vs untreated control, 6 h exposure, then 48 h. As to the method:
(§1) The following six human cancer cell lines were procured from the Cell Repository of the National Center for Cell Sciences (NCCS) at Pune. Their corresponding ATCC No. and the organ from which they were isolated are also mentioned in the table described below:
(§2) Cytotoxicity testing in vitro was done by the method of (Woerdenbag et al., 1993; J. Nat. Prod. 56 (6): 849-856). 2×10^3 cells/well were incubated in the 5% CO2 incubator for 24 h to enable them to adhere properly to the 96 well polystyrene microplate (Grenier, Germany). Test compounds dissolved in 100% DMSO in at least five doses were added and left for 6 h after which the compound plus media was replaced with fresh media and the cells were incubated for another 48 h in the CO2 incubator at 37° C.
(§3) Then, 10 μl MTT [3-(4,5-dimethylthiazol-2-yl)-2,5-diphenyltetrazolium bromide; Sigma M 2128] was added, and plates were incubated at 37° C. for 4 h. 100 μl dimethyl sulfoxide (DMSO, Merck, Germany) were added to all wells and mixed thoroughly to dissolve the dark blue crystals. After a few minutes at room temperature to ensure that all crystals were dissolved, the plates were read on a SpectraMax 190 Microplate Elisa reader (Molecular Devices Inc., USA), at 570 nm. Plates were normally read within 1 h of adding the DMSO. The experiment was done in triplicate and the inhibitory concentration (IC) values were calculated as follows: % inhibition=[1-OD (570 nm) of sample well/OD (570 nm) of control well]×100. IC90 is the concentration μg/ml required for 90% inhibition of cell growth as compared to that of untreated control. […] It was also found to be active against breast adenocarcinoma, liver and ovarian cancer cell lines at 20-60 μg/ml.
(§4) IC90: Concentration required to inhibit 90% of cell growth as compared to that of control.
(In general: Tetrazolium dyes change colour on reduction, which living cells bring about.)

For data set [2], the system named is breast adenocarcinoma, liver and ovarian cancer cell lines. Kind of data set: In-vitro anticancer MTT assay, summary over three cell lines. The conditions noted are these: Homo sapiens, range over three cell lines, read-out: active concentration (IC90) against breast adenocarcinoma, liver and ovarian cancer cell lines. In kind it is cell-based. As to the method:
as §1, §2
(§5) Then, 10 μl MTT [3-(4,5-dimethylthiazol-2-yl)-2,5-diphenyltetrazolium bromide; Sigma M 2128] was added, and plates were incubated at 37° C. for 4 h. […] After a few minutes at room temperature to ensure that all crystals were dissolved, the plates were read on a SpectraMax 190 Microplate Elisa reader (Molecular Devices Inc., USA), at 570 nm. Plates were normally read within 1 h of adding the DMSO. The experiment was done in triplicate and the inhibitory concentration (IC) values were calculated as follows: % inhibition=[1-OD (570 nm) of sample well/OD (570 nm) of control well]×100. […]

For data set [3], the system named is MCF-7 (breast cancer) cells. Kind of data set: In-vitro anticancer MTT assay, MCF-7. The note with it: 6 h exposure, then 48 h; for IC90: Homo sapiens, MCF7, 90% inhibition of cell growth vs untreated control, read-out: Inhibitory Concentration (IC90) MCF-7. Format: cell-based, human. As to the method:
as §1, §2, §3, §4

For data set [4], the system named is WRL-68 (liver cancer) cells. Kind of data set: In-vitro anticancer MTT assay, WRL-68. The note with it: Homo sapiens, WRL68, 90% inhibition of cell growth vs untreated control, 6 h exposure, then 48 h, read-out: Inhibitory Concentration (IC90) WRL-68. Format: cell-based. As for the experimental part: as §1, §2, §5
In data set [5] the test system is Caco-2 (colon adenocarcinoma) cells. Kind of data set: In-vitro anticancer MTT assay, Caco-2. In kind it is cell-based, human. The conditions noted are these: for IC90: Homo sapiens, Caco-2, read-out: Inhibitory Concentration (IC90) Caco-2; for Inhibitory Concentration (IC90) Caco-2: MTT assay, 90% inhibition of cell growth vs untreated control, 6 h exposure, then 48 h. As for the experimental part: as §1, §2, §3, §4

The test system of data set [6] is TA98 and TA100 strains of salmonella typhimurium. The note with it: cited from earlier work.
In another data set the test system is Neisseria gonorrhoeae. The note with it: cited from earlier work.
For data set [7], the system named is BT-20 human breast carcinoma cells. The conditions noted are these: cited from earlier work.

In brackets after ≈: the same amount, converted by molar mass.

The text below walks through data of patent US7435433B2, “Process for the isolation of oleane compounds isolated from the bark of arjun tree terminalia arjuna (Roxb.)” (Council of Scientific & Industrial Research, priority 2005, dated 2008).

What is called IC50 is the concentration at which inhibition is half-maximal.

For the molecule `CC1(C)CCC2(C(=O)O)CCC3(C)C(=CCC4C5(C)CC(O)C(O)C(C)(C)C5CCC43C)C2C1O` (racemic) [Arjunic acid, 2±,3^2,19±-tri-hydroxy-olea-12-en-28-oic acid], the IC90 in data set [1] (Homo sapiens, read-out: Inhibitory Concentration (IC90) PA-1) is 60 µg/mL (≈ 123 µM); in data set [2], 20 to 60 µg/mL (≈ 40.9 to 123 µM); in data set [3], 50 µg/mL (≈ 102 µM); in data set [4], 20 µg/mL (≈ 40.9 µM); in data set [5], 4.5 µg/mL (≈ 9.21 µM).
Take arjungenin: the “Inhibitory Concentration (IC90) PA-1” value in data set [1] came out at 60 µg/mL. Also, the “Inhibitory Concentration (IC90) MCF-7” value in data set [3] (90% inhibition of cell growth vs untreated control) was more than 50 µg/mL. Moreover, the “Inhibitory Concentration (IC90) Caco-2” value in data set [5] was 50 µg/mL.
As for `O=c1oc2c(O)c(O)cc3c(=O)oc4c(O)c(O)cc1c4c23` [Ellagic acid], in data set [6], the “antimutagenic effect against 59-dependent 2AF” value is reported as “quit effective” and the “antimutagenic effect against NPD” value is listed as “moderate effect”.
Regarding `O=c1cc(-c2ccc(O)c(O)c2)oc2cc(O)cc(O)c12` [Luteolin], the “activity against pathogenic bacteria” value with Neisseria gonorrhoeae was “specific activity”.
Turning to `O=C(O[C@H]1[C@@H]2OC(=O)c3cc(O)c(O)c(O)c3-c3c(O)c(O)c4oc(=O)c5c(c(O)c(O)c6oc(=O)c3c4c65)-c3c(cc(O)c(O)c3O)C(=O)OC[C@H]2OC(O)[C@@H]1O)c1cc(O)c(O)c(O)c1` (stereo partly drawn) [Arjunin], in data set [7], the IC50 is 6500 µg/mL (≈ 6950 µM) and the cytotoxic activity result is “moderate cytotoxic activity”.
As for `CC1(C)CC[C@]2(C(=O)O[C@@H]3O[C@H](CO)[C@@H](O)[C@H](O)[C@H]3O)CC[C@]3(C)C(=CC[C@@H]4[C@@]5(C)C[C@@H](O)[C@H](O)[C@@](C)(CO)[C@@H]5CC[C@]43C)[C@@H]2[C@@H]1O` [Arjunglucoside-I, arjunglucoside-I], the “Inhibitory Concentration (IC90) PA-1” value in data set [1] was more than 50 µg/mL. Besides, in data set [5], the “Inhibitory Concentration (IC90) Caco-2” value is more than 50 µg/mL.
Turning to `CC1(C)CCC2(C(=O)OC3OC(CO)C(O)C(O)C3O)CCC3(C)C(=CCC4C5(C)CC(O)C(O)C(C)(C)C5CCC43C)C2C1O` (stereo not drawn) [Arjunetin, arjunetin], the IC90 in data set [3] amounted to 50 µg/mL (≈ 76.8 µM); in data set [4], 20 µg/mL (≈ 30.7 µM); in data set [5], 10 µg/mL (≈ 15.4 µM).
